Results: patent US12246089B2, “Method for treatment of a viral-mediated infectious disease” (Virothera Pharmaceuticals LLC, priority 2020, dated 2025)
Like-named read-outs stand apart in the source and are kept apart here.

Tests used:
[1] = test system: COVID-19; settings: cited from earlier work
[2] = test system: SARS-CoV-2; settings: in vitro; cited from earlier work
[3] = test system: SARS-CoV; settings: by interfering with glycosylation of ACE2; cited from earlier work
[4] = test system: inhalation injury (IHI); settings: nebulized; cited from earlier work
[5] = test system: severe coronavirus disease 2019 patients with coagulopathy; settings: cited from earlier work
[6] = cited from earlier work
[7] = test system: viruses including COVID-19 viruses; settings: cited from earlier work
[8] = test system: patients with COPD; settings: cited from earlier work
[9] = biological target: SARS-CoV-2 spike glycoprotein (SGP) (Severe acute respiratory syndrome coronavirus 2, UniProt P0DTC2); settings: cited from earlier work
[10] = Encapsulation efficiency and loading capacity of niclosamide by HPLC; settings: niclosamide in niclosamide, HPLC 333-346 nm

In the case of `CCN(CCO)CCCC(C)Nc1ccnc2cc(Cl)ccc12` (stereo not drawn) [hydroxychloroquine], the “clinical benefit of combination with azithromycin” value ([1]; 11 patients with severe COVID-19) is listed as “no evidence of clinical benefit”, the “effectiveness in COVID-19-associated pneumonia” value ([1]; several clinical trials in China) is listed as “to various degree effective” and the “clinical effect in combination with azithromycin” value ([1]; small open-label non-randomized clinical trial from France) is listed as “positive effect”. The “viral copy number of SARS-CoV-2” value [2] was “effectively reduce the viral copy number” and the “replication of SARS-CoV” value [3] was “specifically inhibit the replication of SARS-CoV”.

For heparin, the “lung function and mortality in IHI” value [4] is listed as “promotes improvement in lung function and decreased mortality”, the mortality ([5]; patients meeting sepsis induced coagulopathy (SIC) criteria ≥4, heparin therapy (vs 64.2%, P=0.029)) is listed as 40.0% and the mortality ([5]; patients with SIC score <4, heparin therapy (vs 22.6%, P=0.419)) is listed as 29.0%. For the same molecule, the plasma protein binding [6] was “high plasma protein binding”, the “binding affinity to viruses” value [7] was “nanomolar to sub-nanomolar” and the lung function ([8]; inhaled, 21 days of treatment, COPD patients receiving pulmonary rehabilitation) was “significantly improves lung function”. For the same molecule, the “safety of inhaled nebulized UFH” value ([8]; patients with moderate to very severe COPD) was “safe” and the SGP binding affinity [9] was “high sub-nanomolar affinity”.

Work on `O=C(Nc1ccc([N+](=O)[O-])cc1Cl)c1cc(Cl)ccc1O` [niclosamide] yielded an encapsulation efficiency [10] of 90% and a loading capacity [10] of 10.0%.
